The record followed here is patent US20060211744A1, “3-Pyridinecarboxamide reduces nerve degeneration” (Children's Medical Center, priority 2005, published 2006).

What all share (type): cell-based
The test system of test [1] is cultured DRG neurons (transected axons). Nature of the test: Axon degeneration after transection of axons of cultured DRG neurons (Wallerian degeneration). As to the method:
As a first step in examining the role of NAD in Wallerian degeneration, we used an ultra-sensitive high-performance liquid chromatography (HPLC) method (Micheli and Sestini, 1997) to measure the concentration of NAD and its derivatives in degenerating axons. To do this, the acidic lysates were prepared from axonal segments collected at different time points after transecting the axons from cultured dorsal root ganglia (DRG) and resolved by reverse-phase chromatography. 2 hr after axotomy, when the transected axons were still morphologically indistinguishable from their uncut controls, NAD levels began to decrease. This NAD decrease continued over the course of degeneration, reaching about 50% at 4 hr post-axotomy, to almost undetectable levels by 6 hr after axotomy, when early morphological signs of degeneration began to develop. […] By a similar approach of alkaline extraction (Micheli and Sestini, 1997), it has been difficult for us to detect NADH in the axonal extracts, presumably due to the low abundance of NADH and the high NAD/NADH ratio reported in mammalian cells (Zhang et al., 2002, Kasischke et al., 2004, Kannurpatti et al., 2004).
To definitively determine whether preventing the local decrease in NAD levels could mediate axon protection, we employed soma-free axonal segments that have been separated from their soma as models to examine the protective effects of different pharmacological treatments. It has been shown that exogenously provided NAD, when directly added to the culture medium of DRG neurons, can be transported across the axonal membrane (Araki et al., 2004). Thus, we first examined the protective effects of different concentrations of NAD added to the culture before or after axon transection and removal of ganglia.
To further assess the local and nuclear contribution to such an NAD-dependent protection, we compared the protective effects of NAD provided at different time points. […] In this respect, our results are inconsistent with those shown by Araki et al (2004), possibly due to the different concentrations of NAD used in our studies (1-20 mM) and by Araki et al (0.1 to 1 mM).
We next attempted to explore the possible mechanisms underlying this local NAD-dependent axon protection. […] A possible explanation for this discrepancy between Araki et al (2004) and our results is the different approaches used to block Sirt1 activity. […] It is known that […], other sirturins exist and some of these proteins are localized in the cytoplasmic compartment (Onyango et al., 2002; North et al., 2003).

Test [2] concerns superior sympathetic ganglia (SCGs) and other neuronal types expressing mutant Nmnat1. As to the kind of experiment: Axon degeneration induced by over-expression of mutant Nmnat1 in cultured neurons. The conditions noted are these: no axotomy. The text has this: We next examined whether decreasing neuronal NAD levels is sufficient to induce axon degeneration in intact neurons. By sequence alignment, a conserved (T/H)XGH motif has been identified in the N-terminus of all Nmnat proteins from different species (Saridakis et al., 2001). This motif likely represents a critical active site, as a mutant enzyme with a point mutation at the last amino acid (H to A) loses its catalytic activity but retains its ability to bind the nicotinamide mononucleotide (NMN) substrate (Saridakis et al., 2001). Thus, we made a mutant Nmnat1 in which the critical histidine residue at amino acid 24 in this active site motif was substituted with alanine. Since most of the NAD in mammalian cells, except for liver and kidney cells, is synthesized by recycling degraded NAD products such as nicotinamide via the salvage pathway (Shibata et al., 1991, Rongvaux et al., 2003), over-expressing this mutant Nmnat1 would be expected to sequester the limited substrates, thus decreasing cellular NAD levels. […] As a result, neurons expressing this mutant Nmnat1 developed signs of axon degeneration in the absence of axotomy, concomitant with decreases in neuronal NAD and ATP levels.
In addition, a caspase inhibitor Z-DEVD-fink also had no effect on the axon degeneration induced by this mutant Nmnat1 expression.

For test [3], the system named is cultured hippocampal neurons. Nature of the test: Synaptic loss and process degeneration in cultured hippocampal neurons (dominant-negative Nmnat1). The text has this:
We next attempted to examine whether decreasing NAD levels can induce similar “dying-back” axon degeneration in neurons with established synaptic connections. Such experiments might allow us to assess whether the degenerative processes in axons and other neuronal structures, including synaptic structures and dendritic processes, share similar mechanisms. To do this, we introduced both wild type and dominant negative Nmnat1 into cultured hippocampal neurons at 20 days in vitro (DIV 20), when their synaptic connections have formed and matured (Brewer et al. 1993), and examined their effects on axons as well as dendrites and synapses. As a conventional approach to visualize these neuronal structures, we also co-infected the hippocampal neurons with HSV expressing YFP. […] Moreover, neuronal NAD levels declined from 24-48 hr post-infection with viruses expressing dominant-negative Nmnat1 but not wild type Nmnat1 or YFP. Thus, we decided to focus our analysis on the first 60 hours post-infection.
To monitor changes in synaptic structures, we co-infected DIV20 neurons with HSV expressing YFP and wild type or the mutant Nmnat1, and quantified both spine density and the length and branching of axons and dendrites. As the density of dendritic spines has been considered a reliable indicator for synapse number (reviewed by Hering and Sheng, 2001), we performed high-resolution YFP imaging in neurons co-expressing YFP and Nmnat1 proteins at the indicated time points post-infection to measure the spine densities in these co-infected neurons. Dendrite length and branching patterns were analyzed using Sholl's method of regularly spaced concentric circles centered on the neuronal soma (Sholl, 1953). […]
In the experiments described above, we also performed immunostaining with antibodies against the presynaptic marker bassoon, and found a decrease of positively-stained synaptic structures. However, due to the complex morphology of the axons that makes it extremely difficult to quantify the axonal length in DIV20 hippocampal neurons, we […]. […]

For `NC(=O)c1ccc[n+]([C@@H]2O[C@H](COP(=O)([O-])OP(=O)(O)OC[C@H]3O[C@@H](n4cnc5c(N)ncnc54)[C@H](O)[C@@H]3O)[C@@H](O)[C@H]2O)c1` [NAD, nicotinamide adenine dinucleotide], the “concentrations resulting in significant protective effects on axon degeneration” value in test [1] (added to culture medium of DRG neurons) was in the range of 1 to 20 mM. `COC(=O)CC[C@H](NC(=O)[C@H](CC(=O)OC)NC(=O)OCc1ccccc1)C(=O)N[C@H](C(=O)N[C@@H](CC(=O)OC)C(=O)CF)C(C)C` [Z-DEVD-fink]: the “axon degeneration induced by mutant Nmnat1 expression” value in test [2] is on record as “no effect”. With `Oc1ccc(C=Cc2cc(O)cc(O)c2)cc1` [resveratrol], the “extent of axon degeneration” value in test [1] (a range of concentrations) is “failed to observe any significant change”. Besides, in test [3] (DIV20 hippocampal neurons), the “changes (spine density, dendrites) induced by dominant-negative Nmnat1” value is recorded as “did not affect the changes”. As to `CC(NC(=O)c1ccccc1/N=C/c1c(O)ccc2ccccc12)c1ccccc1` (stereo not drawn) [sirtinol], in test [1] (sirturin inhibitors, nicotinamide at 50 μM), the “attenuation of the protective effect of Nmnat1 or NAD” value is recorded as “did not attenuate the protective effect”. The “dendritic spine quantity or structure, compound alone” value in test [3] (from 50 to 100 μM, up to 72 hr) was “did not induce significant changes”.
